According to ChEMBL document CHEMBL2095176, “GSK Tuberculosis Screening Data”:
Values after ≈ are worked out from the molar mass of the structure shown.

System: Mycobacterium tuberculosis variant bovis BCG
Assay: microbe, parasite or virus in culture
Assay type: functional

SMILES | MIC90 [µM]
Cc1cc(NCCc2ccccc2)nc(NC(=N)Nc2ccc(Cl)cc2)n1 | 2 (≈ 0.762 µg/mL)
CC(C)c1ccc2oc(-c3ccc(NC(=O)c4cccnc4)cc3)nc2c1 | 1.2 (≈ 0.429 µg/mL)
O=C(C=Cc1cccs1)N1CCN(Cc2ccc(Br)s2)CC1 | 2.8 (≈ 1.11 µg/mL)
Cc1cccc(Cn2ccc(NC(=O)c3ccc4c(c3)OCO4)n2)c1 | 8.2 (≈ 2.75 µg/mL)
Cc1ccc(-c2ccnc(-c3cccc(-c4ccccn4)n3)c2)cc1 | 6.1 (≈ 1.97 µg/mL)
Oc1nc(-c2ccccn2)nc(C(F)(F)F)c1Br | 9.6 (≈ 3.07 µg/mL)
Cc1cc(/C=C/c2cccc(C(=O)O)c2)cc(Cl)c1OCC1CCCNC1 (stereo not drawn) | 6.7 (≈ 2.59 µg/mL)
COc1ccc(Nc2nc(CN3CCN(Cc4cc(=O)n5ccsc5n4)CC3)cs2)cc1 | 6 (≈ 2.81 µg/mL)
NC(=O)C(N)Cc1c[nH]c2ccc(F)cc12 (stereo not drawn) | 2.3 (≈ 0.509 µg/mL)
CCc1c(C)nc(-n2nc(C)cc2NC(=O)C(CC)c2ccccc2)[nH]c1=O (stereo not drawn) | 1.2 (≈ 0.455 µg/mL)
Fc1ccc2[nH]c(-c3cccc(-c4ccc(CNCCN5CCNCC5)cc4)c3)nc2c1 | 6.7 (≈ 2.88 µg/mL)
CCc1c(C)nc(-n2nc(C)cc2NC(=O)COc2ccccc2F)[nH]c1=O | 2.8 (≈ 1.08 µg/mL)
O=C(NCCCn1nc(Cl)c(N2CCCNCC2)cc1=O)c1ccc(-c2ccccc2)cc1 | 10 (≈ 4.66 µg/mL)
O=C(C=Cc1cccs1)Nc1nc(-c2ccccn2)cs1 | 3.3 (≈ 1.03 µg/mL)
COc1ccc(C2CC(=O)N(Cc3cccc(F)c3)c3ccccc3S2)cc1OC (stereo not drawn) | 5.9 (≈ 2.5 µg/mL)
COc1ccc(-c2cc3nccc(C4CCNCC4)n3n2)cc1 | 5.7 (≈ 1.76 µg/mL)
Cc1nc(-c2cccc(C(F)(F)F)c2)nc(N2CCNCC2)c1C | 0.5 (≈ 0.168 µg/mL)
c1cc(COc2ccc(C3=NCCN3)cc2)nc(COc2ccc(C3=NCCN3)cc2)c1 | 6.1 (≈ 2.61 µg/mL)
COc1ccc(N(C(=O)CNc2ccccc2Nc2ccccc2)C2CCCC2)cc1 | 2.1 (≈ 0.873 µg/mL)
COc1cccc(-c2nc3c(N4CCCC4)cccc3n2CC2CCCN2)n1.O=C(O)C(F)(F)F (stereo not drawn) | 5.8
O=c1c2sc(-c3ccc(Cl)cc3)cc2ncn1-c1ccc(OCCN2CCCC2)c(Cl)c1 | 2.1 (≈ 1.02 µg/mL)
C=CCNc1nc(SC)nc2ccccc12 | 4.4 (≈ 1.02 µg/mL)
c1ccc(CNc2ncc(-c3ccc(CNCC4CCCO4)cc3)cn2)cc1 (stereo not drawn) | 8.8 (≈ 3.3 µg/mL)

SMILES | MIC90 [µM]
Cc1cnc(CNCc2ccc(-c3ccc(C(=O)NCCc4ccccc4)c(F)c3)cc2)cn1 | 5.5 (≈ 2.5 µg/mL)
O=C(NC1CCSc2ccccc21)c1ccc(S(=O)(=O)N2CCOCC2)cc1 (stereo not drawn) | 3.3 (≈ 1.38 µg/mL)
Cc1nn(-c2nc(-c3ccccn3)nc3ccsc23)c(N)c1C#N | 7 (≈ 2.33 µg/mL)
CC1CN(Cc2cccc(C(=O)NCc3ccc(F)c(-c4cccc(CN5CCN[C@@H](C)C5)c4)c3)c2)C(C)CN1 (stereo partly drawn) | 8.9 (≈ 4.84 µg/mL)
CC(c1nc2ccccc2s1)N(C)C(=O)c1cccc(-n2cnnn2)c1 (stereo not drawn) | 5.6 (≈ 2.04 µg/mL)
Cc1ccc(-c2nnc(C)c(N3CCCC3)n2)cc1 | 10 (≈ 2.54 µg/mL)
Cc1cc(S(=O)(=O)c2ccccc2)cc2c(Nc3ccc(N4CCOCC4)cc3)c(C(N)=O)cnc12 | 8.8 (≈ 4.42 µg/mL)
NC(=O)c1csc(-c2cccc(OCCNCCc3cccc(F)c3)c2)n1 | 2 (≈ 0.771 µg/mL)
Cc1ccc(SCCC(=O)Nc2nc(-c3ccccn3)cs2)cc1 | 4.4 (≈ 1.56 µg/mL)
COc1cc(Nc2ccccc2)ccc1NS(=O)(=O)c1ccc(-c2cc(C(F)(F)F)n(C)n2)s1 | 2.8 (≈ 1.42 µg/mL)
CN(C)S(=O)(=O)c1ccc(C(=O)Nc2nnc(-c3ccc(Br)cc3)o2)cc1 | 8 (≈ 3.61 µg/mL)
Nc1nonc1-c1nc2c(-c3ccccc3)nccc2n1C1CCNCC1 | 0.5 (≈ 0.181 µg/mL)
CCCCc1ccc(C(=O)Nc2nccc3ccccc23)nc1 | 7.2 (≈ 2.2 µg/mL)
CCc1c(C)nc(-c2cccc(C(F)(F)F)c2)nc1N1CCNCC1 | 8.6 (≈ 3.01 µg/mL)
COc1cc(Cl)c(Cl)cc1C(=O)Nc1cccc2c1CCN(C)C2 | 4 (≈ 1.46 µg/mL)
CCN(Cc1ccc2c(c1)OCO2)C(=O)CSc1nc(NC)c2ccccc2n1 | 3.3 (≈ 1.35 µg/mL)
CCOC(=O)c1csc(-c2ccccc2NC(=O)OCC2CCNCC2)n1 | 9.3 (≈ 3.62 µg/mL)
CN(C)S(=O)(=O)c1ccc(C(=O)Nc2nnc(-c3ccc(Cl)s3)o2)cc1 | 5.7 (≈ 2.35 µg/mL)
O=C(Nc1nc(-c2ccccn2)cs1)c1ccc(-c2ccc(F)cc2)s1 | 3.6 (≈ 1.37 µg/mL)
CCOC(=O)c1c(-c2ccccc2)oc2ccc(O)c(CN3CCCC3)c12 | 3.9 (≈ 1.43 µg/mL)
COc1ccc(S(=O)(=O)Nc2ccccc2Nc2ccc(C)cc2)cc1 | 2.8 (≈ 1.03 µg/mL)
CSc1nc2ccccc2n1-c1nccc(N2CCN(CCN)CC2)n1 | 9.9 (≈ 3.66 µg/mL)
Cc1ccc(-n2ncc3c(SCC(=O)NNC(=O)c4ccco4)ncnc32)cc1 | 3.6 (≈ 1.47 µg/mL)

SMILES | MIC90 [µM]
CC(=O)N1CCc2ccc(/C=C/C(=O)O)cc21 | 2.1 (≈ 0.486 µg/mL)
C[C@@H]1CN(c2ccc(C#N)c(C(F)(F)F)c2)CCN1 | 4.2 (≈ 1.13 µg/mL)
COc1ccc(CCNC(=O)c2cc(-c3ccc(OC)c(OC)c3)on2)cc1OC | 4.2 (≈ 1.73 µg/mL)
Cn1cc(-c2noc(CCN[C@H]3CC[C@H](C)CC3)n2)c2ccccc21 | 9.4 (≈ 3.18 µg/mL)
COc1ccc(CC(=O)Nc2c(-c3cccs3)nc3cc(C)ccn23)cc1 | 9.2 (≈ 3.47 µg/mL)
COc1ccc(-c2ccc(Nc3cccc(S(=O)(=O)CCNC4CCC4)c3)nc2)cn1 | 1.6 (≈ 0.702 µg/mL)
CCCc1cc(=O)[nH]c(-n2nc(C)cc2NC(=O)CC(c2ccccc2)c2ccccc2)n1 | 7.5 (≈ 3.31 µg/mL)
O=C(CCC(=O)NNC(=O)c1ccco1)NNC(=O)c1ccco1 | 8.6 (≈ 2.87 µg/mL)
c1ccc(-c2nc(N3CCCNCC3)c3ccccc3n2)cc1 | 2.7 (≈ 0.822 µg/mL)
Cc1nn(CC(C)C)c(Cl)c1C(=O)Nc1nc(-c2ccccn2)cs1 | 10 (≈ 3.76 µg/mL)
Cc1ccc2c(Cl)c(C(=O)NC3=NCCS3)sc2c1 | 3.8 (≈ 1.18 µg/mL)
O=C(CCc1nc2ccccc2oc1=O)N[C@@H]1CCC(=O)N[C@H]1c1ccsc1 | 6.4 (≈ 2.54 µg/mL)
COc1ccc(CCNC(=O)c2c(C)nc3ccccn23)cc1 | 6.9 (≈ 2.13 µg/mL)
Cc1ccc(Nc2cc(C)nn2-c2nc(C)cc(O)n2)cc1 | 0.5 (≈ 0.148 µg/mL)
O=C(Nc1nnc(-c2cc(Cl)ccc2Cl)o1)c1ccc(Br)s1 | 8.9 (≈ 3.73 µg/mL)
CN(C)C1CCN(C(=O)c2csc(-c3cccc(Cl)c3Cl)n2)C1 (stereo not drawn) | 8.5 (≈ 3.15 µg/mL)
O=C(NCCCn1nc(Cl)c(N2CCCNCC2)cc1=O)Nc1ccc(-c2ccccc2)cc1 | 3.7 (≈ 1.78 µg/mL)
Fc1ccc2nc(Nc3nc(-c4ccccn4)cs3)sc2c1 | 1 (≈ 0.328 µg/mL)
Cc1ccc(CNC(=O)c2cnn3c2NC(c2ccc(C)cc2)CC3C(F)F)cc1 (stereo not drawn) | 0.9 (≈ 0.369 µg/mL)
CN(Cc1nc2ccccc2s1)C(=O)c1cccc(NC(=O)c2cccs2)c1 | 1.4 (≈ 0.571 µg/mL)
Brc1c(-c2ccc3c(c2)OCO3)nc2ncccn12 | 2.4 (≈ 0.764 µg/mL)
Nc1nc(N)c2c(Sc3ccc4ccccc4c3)cccc2n1 | 4.4 (≈ 1.4 µg/mL)
CC1=C(C(=O)Nc2ccc3[nH]ncc3c2)C(c2cc(C#Cc3ccccc3)cs2)NC(=O)N1 (stereo not drawn) | 2 (≈ 0.907 µg/mL)

SMILES | MIC90 [µM]
CC(C)(C)C(=O)CC1(O)Oc2ccccc2N=C1C=C(O)C(C)(C)C (stereo not drawn) | 5.3 (≈ 1.83 µg/mL)
O=C(Nc1ccc(C(=O)Nc2cccc(C3=NCCN3)c2)cc1)Nc1ccc(C2=NCCN2)cc1 | 4.6 (≈ 2.15 µg/mL)
Cc1cc(C)c2cc(CN(Cc3cccnc3)C(=O)c3ccc(F)cc3)c(Cl)nc2c1 | 2.9 (≈ 1.26 µg/mL)
Cc1csc(NC(=O)CSc2nc(C)c(C)n2Cc2ccc(Cl)cc2)c1C#N | 0.9 (≈ 0.388 µg/mL)
CCc1nc2ccccc2n1CC(O)COc1cc(C)ccc1Cl (stereo not drawn) | 9.7 (≈ 3.34 µg/mL)
CCc1cc(=O)[nH]c(-n2nc(C)cc2NC(=O)c2cc3ccccc3o2)n1 | 3.8 (≈ 1.38 µg/mL)
Cc1cccc(-c2nc(Nc3ccncn3)c3c(C)csc3n2)n1 | 0.3 (≈ 0.1 µg/mL)
FC(F)(F)c1nnc2ccc(Cl)nn12 | 6.6 (≈ 1.47 µg/mL)
CCc1nnc(NC(=O)c2cccc(C(=O)Nc3nnc(CC)s3)n2)s1 | 1.5 (≈ 0.584 µg/mL)
O=C(Nc1nnc(-c2ccc(Cl)cc2)o1)c1cc(F)cc(F)c1 | 4.1 (≈ 1.38 µg/mL)
COc1ccc(-c2ccc(Nc3cccc(S(=O)(=O)CCNCC4CCCO4)c3)nc2)cn1 (stereo not drawn) | 7 (≈ 3.28 µg/mL)
Cc1nc2ccccn2c1C(=O)NCc1ccc(Cl)cc1 | 2 (≈ 0.6 µg/mL)
Cc1ccc2nc(C)c(C(=O)NCc3cccs3)n2c1 | 0.5 (≈ 0.143 µg/mL)
O=C(Nc1nc(-c2ccccn2)cs1)c1cccc(Oc2ccccc2)c1 | 3.4 (≈ 1.27 µg/mL)
Cc1ccc(-c2nnc(NC(=O)c3ccc(F)cc3)o2)cc1C | 2.3 (≈ 0.716 µg/mL)
Cc1ccc(N2CCN(CCOc3cccc(-c4ccc(C(=O)N5CCCC5)cc4)c3)CC2)cc1C | 2.4 (≈ 1.16 µg/mL)
Cc1ccc2sc(N(CCCn3ccnc3)C(=O)c3ccco3)nc2c1C | 5.6 (≈ 2.13 µg/mL)
CCN(CC)CCCn1c(Sc2ccnc(N3CCN(c4ccncc4)CC3)n2)nnc1-c1ccco1 | 2.8 (≈ 1.46 µg/mL)
COc1ccc2nc(C)cc(OCC(=O)NCc3ccccc3)c2c1 | 3.6 (≈ 1.21 µg/mL)
Cc1cc(Oc2cccc(CN3CCCC3)c2)nc(NCCc2ccccc2)n1 | 8.9 (≈ 3.46 µg/mL)
CC(C)Cc1cn(-c2nc(CN3CCCC3)cs2)c2cc(Cl)ccc12 | 1.9 (≈ 0.711 µg/mL)
CC1CCCC(NC(=O)Nc2ccc3snnc3c2)C1C (stereo not drawn) | 3.1 (≈ 0.944 µg/mL)
Cc1cc(Cl)cc2nc(N3CCCNCC3)oc12 | 6.4 (≈ 1.7 µg/mL)

SMILES | MIC90 [µM]
CCCOc1c(Br)cc(CNCC)cc1OCC | 7.8 (≈ 2.47 µg/mL)
Cc1ccc(Cl)c2sc(N(CCN(C)C)C(=O)CS(=O)(=O)c3ccc(F)cc3)nc12 | 6.4 (≈ 3.01 µg/mL)
O=C(NC1CCNCC1)c1nn(-c2ccc(Cl)cc2)c(=O)cc1N1CCC(Cc2ccccc2)CC1 | 7.6 (≈ 3.85 µg/mL)
Cc1ccc(-n2ncc3c(N4CCCNCC4)nc(C4CC4)nc32)cc1 | 3.9 (≈ 1.36 µg/mL)
c1cc2c(s1)CCOC21CCN(Cc2ccc3c(c2)OCCO3)CC1 | 1.6 (≈ 0.572 µg/mL)
COc1ccc(-c2cncc(-c3cc(N4CCN(CCO)CC4)nc(-c4ccccc4)n3)c2)cc1 | 7.9 (≈ 3.69 µg/mL)
CC(=O)Oc1ccc(Cn2cc(C(=O)NCc3ccccc3)sc2=O)cc1 | 6.9 (≈ 2.64 µg/mL)
O=C(Nc1ccccc1-c1nc(Cl)cs1)OCCOC1CCNCC1 | 7.6 (≈ 2.9 µg/mL)
COc1ccccc1N1CCN(c2cccc3c2nc(/C=C/c2ccncc2)n3C2CCNCC2)CC1 | 5.5 (≈ 2.72 µg/mL)
c1ccc(-c2nnc(Sc3ccnc(N4CCN(c5ccncc5)CC4)n3)n2CCN2CCOCC2)cc1 | 4.2 (≈ 2.22 µg/mL)
Cc1cccc2nc(C(=O)Nc3nc(CN4CCC(C)CC4)cs3)cn12 | 2 (≈ 0.739 µg/mL)
Cc1cccc(CC(=N)NCCOc2cccc(Cl)c2)c1 | 5.5 (≈ 1.67 µg/mL)
NC(=O)c1cc(-c2ccsc2)ccc1OCCOc1ccccc1 | 2.7 (≈ 0.916 µg/mL)
COc1cc(/C=C/C(=O)O)ccc1OCCN1CCCCCC1 | 7 (≈ 2.24 µg/mL)
O=C(Nc1nc(-c2ccccn2)cs1)c1ccno1 | 1.8 (≈ 0.49 µg/mL)
COc1cccc(CNc2nc(C)cc(-c3cccc(CN(C)C)c3)n2)c1 | 7 (≈ 2.54 µg/mL)
CC(=O)N1CCN(Cc2ccc(-c3ccc(NS(=O)(=O)c4ccc(C)cc4)cc3)cc2)CC1 | 9.7 (≈ 4.5 µg/mL)
COc1ccc(-c2nc(CN3CCCC3c3cccs3)cs2)cc1OC (stereo not drawn) | 1.4 (≈ 0.541 µg/mL)
O=C(Nc1nc(-c2ccccn2)cs1)c1cccc(S(=O)(=O)N2CCCCC2)c1 | 5.2 (≈ 2.23 µg/mL)
O=C(NNC(=O)c1cccs1)c1ccc(-c2cccc(C(F)(F)F)c2)o1 | 4.3 (≈ 1.64 µg/mL)
COc1cc(-c2ccccc2)c(Cl)cc1C(=O)Nc1cccc2c1CCN(C)C2 | 5.9 (≈ 2.4 µg/mL)
